Experimental data published in the COVID Moonshot data (paper PMC11187573), “Identification of SARS-CoV-2 Mpro inhibitors through deep reinforcement learning for de novo drug design and computational chemistry approaches” (RSC Medicinal Chemistry, 2024).

Columns and labels:
[1] = biological target: SARS-CoV-2 Main Protease (SARS-CoV-2) (UniProt P0DTD1)
[2] = biological target: SARS-CoV-2 Main Protease (SARS-CoV-2) (UniProt P0DTD1); remark: listed apart in the source

| Compound | relative solubility at 20 uM | relative solubility at 100 uM | inhibition ([1]; 20.0 µM) [%] | inhibition ([1]; 50.0 µM) [%] | inhibition ([2]; 20.0 µM) [%] | inhibition ([2]; 50.0 µM) [%] | IC50 [2] [µM] |
| --- | --- | --- | --- | --- | --- | --- | --- |
| C=CC(=O)N(c1ccc(C(C)(C)C)cc1)C(C(=O)NC(C)(C)C)c1cccnc1 (stereo not given) | 0.96 | 0.89 | 12.7 | 27.2 | 0 | 16.1 |  |
| C=CC(=O)N(c1ccc(C(C)(C)C)cc1)C(C(=O)NCc1ccc(F)cc1)c1cccnc1 (stereo not given) | 0.98 | 0.66 | 51.2 | 76.4 | 79.3 | 100 | 10.5 |
| CC(=O)N1CCN(S(=O)(=O)C2=CC[SH]=C2)CC1 | 0.99 | 1 |  | -20.6 | 0 | 3.62 |  |
| O=C(Cc1c[nH]c2ncccc12)NCc1cc(Cl)ccn1 | 1 | 0.98 | 2.58 | 8.45 | 0 |  |  |
| C=CC(=O)N1CCC(N(Cc2ccccc2C#N)C2CCC(O)CC2)CC1 (stereo not given) | 0.99 | 0.99 | -64 | -8.67 |  | 0 |  |
| CCOCC1CCN(c2ccc(S(N)(=O)=O)cc2)CC1 | 1 | 1 |  | 7.41 | 21.8 | 44.6 |  |
| CC1CN(Cc2ccccc2NC(=O)NCc2cnsc2)CC(C)O1 (stereo not given) | 1 | 0.98 | 1.48 | 4.44 | 0 | 1.33 |  |
| CCc1ccccc1Nc1nc(N)nc(CSc2nnc3ccccn23)n1 | 0.99 | 0.95 | 20.9 | 46.6 | -0.805 | 3.37 |  |
| O=C(NCCN1CCN(C(=O)CCl)CC1)c1ccccc1 | 1 | 1.01 | 0.205 | 18.1 | 0.871 |  |  |
| Cc1noc(CC(NC(=O)C(C)Cn2ccnc2)c2ccccc2)n1 (stereo not given) | 1 | 1 |  | -2.38 | 0 | 0 |  |
| NC(=O)CCN(C(=O)CCl)C1CCS(=O)(=O)C1 (stereo not given) | 1 | 1 |  | 18.6 | 16.3 | 34.1 |  |
| Cc1ccncc1NC(=O)CC1CCCNC1 (stereo not given) | 1 | 1 | -1.91 | 16.7 |  | 0 |  |
| N#Cc1cccc(CNc2ccc(O)cc2)c1 | 1 | 1 | 9.73 | 2.32 | 19.8 | 22.7 |  |
| Cc1ccncc1NC(=O)Cc1cccc(S(N)(=O)=O)c1 | 0.99 | 0.99 | 11.1 | 6.23 |  | 11.5 |  |
| COc1ccc2nc(C)cc(C(=O)NN)c2c1 | 1 | 1 |  | 22.2 | 0 | 0 |  |
| O=C(Nc1nc2ccc(F)cn2n1)C1CCOc2ccc(Cl)cc21 (stereo not given) | 1 | 0.99 | -28.5 | 7.58 |  | 0 |  |
| COc1ccccc1OCCN(C)C(=O)c1cc(=O)[nH]c2ccc(Cl)cc12 | 1 | 0.99 | 0.453 | 4.43 |  | 0 |  |
| O=C(Nc1cccnc1)Nc1ccc(Cl)s1 | 0.99 | 0.95 | 8.85 | 23.7 | 0 | 35.7 |  |
| CC(=O)N1CCN(C(=O)Cc2ccccn2)CC1 | 1 | 1 | -0.517 | 3.52 | 0 | 0 |  |

| Compound | relative solubility at 20 uM | relative solubility at 100 uM | inhibition ([1]; 20.0 µM) [%] | inhibition ([1]; 50.0 µM) [%] | inhibition ([2]; 20.0 µM) [%] | inhibition ([2]; 50.0 µM) [%] | IC50 [2] [µM] |
| --- | --- | --- | --- | --- | --- | --- | --- |
| O=C(c1cc(=O)[nH]c2ccc(Cl)cc12)N1CCN(S(=O)(=O)c2ccccc2F)CC1 | 0.94 | 0.91 | -7.48 | 4.42 |  | 17.1 |  |
| Cc1ccncc1NC(=O)CCc1ccccn1 | 1 | 1 | -0.904 | -28.6 |  | 11.4 |  |
| O=C(NCc1ccc(Cl)cc1CN1CCN(C(=O)CCl)CC1)[C@@H]1CCCOC1 (stereo in doubt) | 1 | 1 | 56.7 | 77.9 |  | 100 | 20.1 |
| CN(CC1COc2ccccc2O1)C(=O)c1cc(=O)[nH]c2cc(F)ccc12 (stereo not given) | 0.98 | 0.99 | -3.67 | 15.3 |  | 0 |  |
| O=C(NCC(O)Cn1ccnn1)c1ccccc1OC1CCC1 (stereo not given) | 1 | 1 | -1.11 | 2.04 | 0 | 0 |  |
| Cc1ccc(S(=O)(=O)N2CCN(C(=O)c3cc(=O)[nH]c4ccc(Cl)cc34)CC2)cc1 | 0.97 | 0.88 | -0.869 | -0.533 |  | 11.5 |  |
| Cc1cc(CC(=O)Nc2cnccc2C)[nH]n1 | 1 | 1 | -4.28 | 0.404 |  | 4.87 |  |
| C=CC(=O)N(c1ccc(C(C)(C)C)cc1)C(C(=O)Nc1ccc(OC)nc1)c1cccnc1 (stereo not given) | 1 | 1 | 1.08 | 13.4 | 0 | 0 |  |
| O=C1N(Cc2cccc(Cl)c2)CCN1c1nccc2n[nH]cc12 | 0.92 | 0.93 | 72.1 | 84.1 |  | 88.8 | 2.91 |
| O=C(Nc1cccnc1)Nc1cncc(Cl)c1 | 1 | 1 |  | 16.8 | 0 | -0.075 |  |
| O=C(C1CCCN1C(=O)c1ccccc1)N1CCOCC1 (stereo not given) | 1 | 1 |  | -28 | 0 | 0 |  |
| CC(=O)NCCc1c[nH]c2c(CN3CCN(C(=O)CCl)CC3)cccc12 | 0.95 | 0.95 | 62.8 | 85.7 |  | 100 | 11.5 |
| Cc1ccc(NC(=O)Cc2cccc(Cl)c2)cn1 | 0.99 | 1 | 0.36 | 3.35 |  | 0 |  |
| Cc1ccncc1NC(=O)C(C)(C)c1cccc(Cl)c1 | 1 | 1 | 49.3 | 68 |  | 66.9 | 24.5 |
| NS(=O)(=O)c1ccc(N2CCC(N3CCCCCC3)CC2)cc1 | 1 | 1 | -1.25 | 0.117 |  | 100 | 15.8 |
| O=C1CC(Oc2cccc(C(=O)NCc3cncnc3)c2)N1 (stereo not given) | 1 | 1 | 21.6 | 25.1 |  | 28.1 |  |
| C=CC(=O)N(c1ccc(N(C)C)c(C)c1)C(C(=O)Nc1ccc(Cl)cc1)c1cccnc1 (stereo not given) | 0.88 | 0.78 | 4.26 | 12.1 | 0 |  |  |
| CC1CC(C)CN(C(=O)c2ccccc2NC(=O)NCc2ccoc2)C1 (stereo not given) | 1 | 0.99 |  | 8.34 | 0 | 0 |  |
